Among the test systems are NCI-H460 lung; UACC-257 melanoma; SW-620 colon; NCI-H522 lung; NCI-H23 lung; T-47D breast; IGROV1 ovarian; SF-268 CNS.
Assay in all cases: NCI tumour cell line growth inhibition, 48 h

SMILES strings stand for the structures.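 Five compound concentrations were applied to cells in 96-well plates for 48 hours; endpoints were derived by simple linear interpolation of the resulting dose-response curve. GI50 marks 50% less growth. TGI marks complete inhibition of growth.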 A value given as a limit tells only on which side of the number the result lay.

For the molecule `CCCCCCNC(=O)Oc1ccc(/C(=C(\C)c2ccccc2)c2ccc(OCCN(CC)CC)cc2)cc1`, the GI50 was 1.4 µM with NCI-H460 lung; 1.21 µM with UACC-257 melanoma; 1.3 µM in the experiment on SW-620 colon; 3.48 µM in the experiment on NCI-H522 lung; 5.17 µM in the experiment with NCI-H23 lung; 1.07 µM in the experiment with T-47D breast. In addition, the GI50 is 3.11 µM in the experiment with IGROV1 ovarian and 5.54 µM with SF-268 CNS. The TGI in the experiment on NCI-H460 lung is 3.62 µM; with UACC-257 melanoma it was 3.17 µM; in the experiment on SW-620 colon, 3.26 µM; with NCI-H522 lung it was 10.6 µM; in the experiment with NCI-H23 lung, 11.6 µM; in the experiment on T-47D breast it was 8.17 µM. For the same molecule, the TGI turned out to be 9.82 µM with IGROV1 ovarian and 13.1 µM in the experiment on SF-268 CNS.
As for `Cc1ccc2c(c1)C(=O)c1c-2n(CCCN=[N+]=[N-])c(=O)c2cc([N+](=O)[O-])ccc12`, the GI50 with NCI-H460 lung is 21.1 µM; in the experiment with UACC-257 melanoma, greater than 100 µM; in the experiment on SW-620 colon, 59.7 µM; with NCI-H522 lung, 25.8 µM; in the experiment with NCI-H23 lung it was greater than 100 µM; in the experiment on T-47D breast, 20.7 µM. The GI50 is 19.2 µM in the experiment with IGROV1 ovarian and 5.59 µM with SF-268 CNS. For the same molecule, the TGI was greater than 100 µM in the experiment with NCI-H460 lung; greater than 100 µM with UACC-257 melanoma; greater than 100 µM in the experiment with SW-620 colon; greater than 100 µM in the experiment on NCI-H522 lung; greater than 100 µM in the experiment with NCI-H23 lung; 93.6 µM in the experiment with T-47D breast. Moreover, the TGI in the experiment on IGROV1 ovarian and in the experiment on SF-268 CNS was greater than 100 µM throughout.
In the case of `Cc1cc(S(=O)(=O)Nc2nc3cc(Cl)ccc3o2)c(SCc2ccccc2)cc1Cl`, the GI50 in the experiment on NCI-H460 lung is 21.7 µM; in the experiment on UACC-257 melanoma it was 18.4 µM; in the experiment on SW-620 colon it was 19.2 µM; in the experiment on NCI-H522 lung it was 17.4 µM; in the experiment on NCI-H23 lung, 26.5 µM; in the experiment on T-47D breast, 17.8 µM. Further, the GI50 with IGROV1 ovarian is 19.8 µM; in the experiment with SF-268 CNS, 21.5 µM. Besides, the TGI in the experiment with NCI-H460 lung worked out at 58.5 µM; in the experiment with UACC-257 melanoma, 38.4 µM; in the experiment with SW-620 colon, 38.5 µM; in the experiment on NCI-H522 lung, 40.1 µM; with NCI-H23 lung, 54.2 µM; with T-47D breast, 39.7 µM. The TGI in the experiment on IGROV1 ovarian was 44.3 µM; with SF-268 CNS, 49.7 µM.
As for `COc1ccc(NC(=O)/C=C(C)/C=C/C=C(C)\C=C\C2=C(C)CCCC2(C)C)cc1`, the GI50 is 84 µM with NCI-H460 lung; 14.1 µM with UACC-257 melanoma; 51.6 µM in the experiment with SW-620 colon; 28.2 µM with NCI-H522 lung; 30.1 µM with NCI-H23 lung; 3.79 µM in the experiment with T-47D breast. For the same molecule, the GI50 is 54.3 µM with IGROV1 ovarian and greater than 100 µM with SF-268 CNS. The TGI is greater than 100 µM in the experiment on NCI-H460 lung; greater than 100 µM with UACC-257 melanoma; greater than 100 µM in the experiment with SW-620 colon; greater than 100 µM in the experiment with NCI-H522 lung; greater than 100 µM in the experiment with NCI-H23 lung; 43.1 µM with T-47D breast. Also, the TGI in the experiment on IGROV1 ovarian and with SF-268 CNS was greater than 100 µM in each case.
In the case of `O=C(Nc1cc(-c2cccnc2)nc(NCCCN2CCOCC2)n1)c1cc(Br)cc(C(F)(F)F)c1`, the GI50 in the experiment with NCI-H460 lung was 2.97 µM; in the experiment with UACC-257 melanoma, 2.1 µM; in the experiment with SW-620 colon it was 2.25 µM; in the experiment on NCI-H522 lung it was 1.95 µM; with NCI-H23 lung it was 3.55 µM; in the experiment on T-47D breast, 3.72 µM. The GI50 in the experiment with IGROV1 ovarian is 4.67 µM; in the experiment with SF-268 CNS, 2.63 µM. Besides, the TGI in the experiment with NCI-H460 lung amounted to 8.94 µM; in the experiment on UACC-257 melanoma, 3.78 µM; with SW-620 colon, 5.48 µM; in the experiment on NCI-H522 lung, 5.31 µM; in the experiment with NCI-H23 lung, 15 µM; with T-47D breast, 16.1 µM. Moreover, the results for the TGI in the experiment with IGROV1 ovarian and in the experiment on SF-268 CNS were 19.5 µM and 10.4 µM, respectively.
Regarding `COc1cc(/C=N\O)nc(-c2ccccn2)c1`, the TGI was greater than 100 µM with NCI-H460 lung; greater than 100 µM in the experiment with UACC-257 melanoma; greater than 100 µM in the experiment with SW-620 colon; 56.2 µM with NCI-H522 lung; greater than 100 µM in the experiment with NCI-H23 lung; greater than 100 µM in the experiment with T-47D breast. The TGI with IGROV1 ovarian is 13.2 µM; with SF-268 CNS, greater than 100 µM.
As to `CCOC(=O)/C(C#N)=C/Nc1ccc(-c2nc3ccccc3[nH]2)cc1`, the GI50 in the experiment on NCI-H460 lung is 24.8 µM; with UACC-257 melanoma, 62.1 µM; in the experiment with SW-620 colon, 54.1 µM; in the experiment on NCI-H522 lung, 24 µM; in the experiment on T-47D breast, 33.9 µM; in the experiment with IGROV1 ovarian it was 22.7 µM. In addition, in the experiment on SF-268 CNS, the GI50 is 19.2 µM. Further, the TGI in the experiment on NCI-H460 lung, with UACC-257 melanoma, in the experiment on SW-620 colon, in the experiment on NCI-H522 lung, with T-47D breast and in the experiment on IGROV1 ovarian was greater than 100 µM in each case. The TGI in the experiment with SF-268 CNS was determined as 47.4 µM.
On to `CCOc1cc(C(C)(C)C)ccc1C1=N[C@@](C)(c2ccc(Cl)cc2)[C@@](C)(c2ccc(Cl)cc2)N1C(=O)N1CCN(CCS(C)(=O)=O)CC1`, for which the GI50 was 1.1 µM with NCI-H460 lung; 1.1 µM in the experiment with UACC-257 melanoma; 5.03 µM with SW-620 colon; 2.98 µM in the experiment on NCI-H522 lung; 4.69 µM in the experiment on NCI-H23 lung; 3.7 µM in the experiment on T-47D breast. The GI50 in the experiment on IGROV1 ovarian was 1.49 µM; in the experiment with SF-268 CNS, 3.82 µM. For the same molecule, the TGI with NCI-H460 lung was found to be 5.4 µM; with UACC-257 melanoma, 3.72 µM; in the experiment with SW-620 colon, 20.5 µM; in the experiment on NCI-H522 lung, 10.2 µM; in the experiment on NCI-H23 lung, 20.2 µM; in the experiment with T-47D breast it was 57.3 µM. Further, the TGI in the experiment on IGROV1 ovarian is 6.54 µM; in the experiment with SF-268 CNS, 17.4 µM.
Regarding `CC(C)(C)C(=O)OCc1nc2cc3c(cc2c(=O)[nH]1)CCC3=O`, the GI50 with NCI-H460 lung, in the experiment with UACC-257 melanoma, in the experiment with SW-620 colon, with NCI-H522 lung, in the experiment on NCI-H23 lung and in the experiment with T-47D breast was greater than 100 µM in each case. For the same molecule, the GI50 in the experiment with IGROV1 ovarian and in the experiment with SF-268 CNS was greater than 100 µM in each case. The TGI in the experiment with NCI-H460 lung, with UACC-257 melanoma, in the experiment with SW-620 colon, in the experiment on NCI-H522 lung, in the experiment with NCI-H23 lung and in the experiment on T-47D breast was greater than 100 µM throughout. In addition, the TGI in the experiment on IGROV1 ovarian and with SF-268 CNS was greater than 100 µM each time.

For the origin of these results see PubChem BioAssay (NCI).
